This passage reports IC50 results from patent US5990146A, “Benzimidazoles for inhibiting protein tyrosine kinase mediated cellular proliferation” (Warner-Lambert Company, priority 1998, dated 1999).

Structures can show the parent of a compound that is named as a salt.

Test [1] deals with T1, c-Src (Homo sapiens, UniProt P12931).
T1 construct: made in house; host or cells: baculovirus infected insect cells
Description: c-Src kinase assay. The format is biochemical. As to conditions: Table 1; 5 μM ATP, room temperature, 10 minutes. The procedure: c-Src kinase is purified from baculovirus infected insect cell lysates using an antipeptide monoclonal antibody directed against the N-terminal 2-17 amino acids as described previously by Fry, et al, Anticancer Drug Design. 9: 331-351 (1994). […] At the end of the lysate incubation, the beads are rinsed 3 times in lysis buffer, resuspended in lysis buffer containing 10% glycerol, and frozen. These latex beads are thawed, rinsed 3 times in assay buffer which is comprised of 40 mM tris pH 7.5, 5 mM magnesium chloride, and suspended in the same buffer. […] The reaction is started at room temperature by addition of the ATP and quenched 10 minutes later by the addition of 125 μL of 30% TCA, 0.1 M sodium pyrophosphate for 15 minutes on ice. The plate is then filtered and the wells washed with two 250-μL aliquots of 15% TCA, 0.1 M pyrophosphate. The filters are punched, counted in a liquid scintillation counter, and the data examined for inhibitory activity in comparison to a known inhibitor such as erbstatin. The method is described more fully in J. Med. Chem., 37: 598-609 (1994).

For test [2], the target named is T2, PDGF receptor tyrosine kinase (mouse PDGF-β) (Mus musculus, UniProt P05622).
T2 construct: PCR primers are designed to amplify a fragment of DNA that codes for the intracellular tyrosine kinase domain; made in house; host or cells: Sf9 insect cells (baculovirus), cell lysate
Put plainly: PDGFr tyrosine kinase assay (poly glutamate-tyrosine phosphorylation). Particulars: Table 1; 10 minutes at 25° C. The format is biochemical. The procedure: Platelet Derived Growth Factor Receptor (PDGFr) and Fibroblast Growth Factor Receptor (FGFr)
Full length cDNAs for the mouse PDGF-β and human FGF-1 (flg) receptor tyrosine kinases were obtained from J. Escobedo and are prepared as described in J. Biol. Chem., 262: 1482-1487 (1991). PCR primers are designed to amplify a fragment of DNA that codes for the intracellular tyrosine kinase domain. The fragment is melded into a baculovirus vector, cotransfected with AcMNPV DNA, and the recombinant virus isolated. SF9 insect cells are infected with the virus to overexpress the protein, and the cell lysate is used for the assay.
The assay is performed in 96-well plates (100 μL/incubation/well), and conditions are optimized to measure the incorporation of ^32 p from [γ^32 P]-ATP into a glutamate-tyrosine copolymer substrate. Briefly, to each well is added 82.5 μL of incubation buffer containing 25 mM Hepes (pH 7.0), 150 mM NaCl, 0.1% Triton X-100, 0.2 mM PMSF, 0.2 mM sodium vanadate, 10 mM manganese chloride, and 750 μg/mL of poly (4:1) glutamate-tyrosine followed by 2.5 μL of inhibitor and 5 μL of enzyme lysate (7.5 μg/μL FGFR-TK or 6.0 μg/μL PDGFR-TK) to initiate the reaction. Following a 10 minute incubation at 25° C., 10 μL of [γ^32 P]-ATP (0.4 μCi plus 50 μM ATP) is added to each well and samples are incubated for an additional 10 minutes at 25° C. The reaction is terminated by the addition of 100 μL of 30% trichloroacetic acid (TCA) containing 20 mM sodium pyrophosphate and precipitation of material onto glass fiber filter mats (Wallac). Filters are washed 3 times with 15% TCA containing 100 mM sodium pyrophosphate and the radioactivity retained on the filters counted in a Wallac 1250 Betaplate reader. Nonspecific activity is defined as radioactivity retained on the filters following incubation of samples with buffer alone (no enzyme). Specific enzymatic activity is defined as total activity (enzyme plus buffer) minus nonspecific activity.

Test [3] concerns the target T3, FGF receptor tyrosine kinase (human FGF-1 (flg)) (Homo sapiens, UniProt P11362).
T3 construct: PCR primers are designed to amplify a fragment of DNA that codes for the intracellular tyrosine kinase domain; made in house; host or cells: Sf9 insect cells (baculovirus), cell lysate
Put plainly: FGFr tyrosine kinase assay (poly glutamate-tyrosine phosphorylation). The format is biochemical. As to conditions: Table 1; 10 minutes at 25° C. The procedure: Platelet Derived Growth Factor Receptor (PDGFr) and Fibroblast Growth Factor Receptor (FGFr) Full length cDNAs for the mouse PDGF-β and human FGF-1 (flg) receptor tyrosine kinases were obtained from J. Escobedo and are prepared as described in J. Biol. Chem., 262: 1482-1487 (1991). PCR primers are designed to amplify a fragment of DNA that codes for the intracellular tyrosine kinase domain. The fragment is […] into a baculovirus vector, cotransfected with AcMNPV DNA, and the recombinant virus isolated. SF9 insect cells are infected with the virus to overexpress the protein, and the cell lysate is used for the […] and FGFr The assay is performed in 96-well plates (100 μL/incubation/well), and conditions are optimized to measure the incorporation of ^32 p from [γ^32 P]-ATP into a glutamate-tyrosine copolymer substrate. […] The reaction is terminated by the addition of 100 μL of 30% trichloroacetic acid (TCA) containing 20 mM sodium pyrophosphate and precipitation of material onto glass fiber filter mats (Wallac). Filters are washed 3 times with 15% TCA containing 100 mM sodium pyrophosphate and the radioactivity retained on the filters counted in a Wallac 1250 Betaplate reader. Nonspecific activity is defined as radioactivity retained on the filters following incubation of samples with buffer alone (no enzyme). Specific enzymatic activity is defined as total activity (enzyme plus buffer) minus nonspecific activity.

Test [4] deals with PDGF receptor autophosphorylation in rat aorta smooth muscle cells. Put plainly: PDGF Receptor Autophosphorylation Assay in rat aorta smooth muscle cells. The format is cell-based. Particulars: Table 2, PDGF-BB 30 ng/mL, 2 hours pre-incubation, read-out: IC50, inhibition of PDGF-stimulated receptor autophosphorylation.
Description: Rat aorta smooth muscle cells (RASMC) are isolated from the thoracic aorta of rats and explanted according to the method of Ross, J. Cell. […] Cells are grown in Dulbecco's modified Eagle's medium (DMEM, Gibco) containing 10% fetal calf serum (FBS, Hyclone, Logan, Utah), 1% glutamine (Gibco) and 1% penicillin/streptomycin (Gibco). Cells are identified as smooth muscle cells by their "hill and valley" growth pattern and by fluorescent staining with a monoclonal antibody specific for SMC μ-actin (Sigma). RASMC are used between passages 5 and 20 for all experiments. Test compounds are prepared in dimethylsulfoxide (DMSO) in order to achieve consistency in the vehicle and to ensure compound solubility. Appropriate DMSO controls are simultaneously evaluated with the test compounds.
Rat aortic smooth muscle cells are grown to confluencey in 100 mm dishes. Growth medium is removed and replaced with serum-free medium and cells are incubated at 37° C. for an additional 24 hours. Test compounds are then added directly to the medium and cells incubated for an additional 2 hours. After 2 hours PDGF-BB is added at a final concentration of 30 ng/mL for 5 minutes at 37° C. to stimulate autophosphorylation of PDGF receptors. Following growth factor treatment, the medium is removed, and cells are washed with cold phosphate-buffered saline and immediately lysed with 1 mL of lysis buffer (50 mM Hepes, pH 7.5, 150 mM NaCl, 10% glycerol, 1% Triton-X 100, 1 mM EDTA, 1 mM EGTA, 50 mM NaF, 1 mM sodium orthovanadate, 30 mM p-nitrophenyl phosphate, 10 mM sodium pyrophosphate, 1 mM phenylmethyl sulfonyl fluoride, 10 μg/mL aprotinin and 10 μg/mL leupeptin). Lysates are centrifuged at 10,000 ×g for 10 minutes. […] Following the incubation, protein-A-sepharose beads are added for 2 hours with continuous mixing, and immune complexes bound to the beads washed 4 times with 1 mL lysis wash buffer. Immune complexes are solubilized in 40 μL of Laemmli sample buffer and electrophoresed in 8-16% SDS polyacrylamide gels. Following electrophoresis, separated proteins are transferred to nitrocellulose and immunoblotted with a 1:1000 dilution of antiphosphotyrosine monoclonal antibody (UBI clone 4G10; #05-321). Following extensive washing with PBS-0.2% tween-20, the blots are incubated with horseradish peroxidase labeled goat antimouse IgG (1:5000; Bio-Rad Inc, Hercules, Calif.) and protein levels are detected by enhanced chemiluminescence (ECL) detection system according to the instructions of the supplier (Amersham Inc, Arlington Heights, Ill.). The density of the protein bands are determined using NIH Image software (v. 1.56) and IC50 values are generated from the densitometric data.
Test [5] deals with SW-620 cells. Put plainly: Human Colon Carcinoma Growth Delay Assay. The format is cell-based. Particulars: 72 h, Table 3, SW-620, 3 days. Here is the method:
Human Colon Carcinoma Growth Delay Assay Human colon carcinoma cells are seeded into 96-well tissue culture plates in a final volume of 180 μL of 10% fetal bovine serum containing growth media and allowed to incubate overnight (37° C., 5% CO2, 95% air). Cells of the SW620 cell line are seeded at 1.0-1.5×10^4 cells per well. Cells of the HCT8 and HT29 cell lines are seeded at 2-4×10^3 cells per well. […] At the end of the incubation period, cells are fixed with 100 μL per well of 10% trichloroacetic acid after removing the drug/culture medium. The plates are washed 5 times with tap water and stained with 100 μL per well of 0.075% sulforhodamine B in 1% acetic acid for 10 minutes. The plates are rinsed 4 times and allowed to air dry. The stain in the wells are solubilized by the addition of 10 mM unbuffered Tris base and the absorbance read using a microtiter plate optical reader. Inhibition of cell growth is calculated from absorbance data of the treated cells compared to untreated control cells. Table 3 provides data for inhibition of growth in human adenocarcinoma cell lines.

Test [6] deals with SW-620 cells. Put plainly: Human Colon Carcinoma Clonogenic Assay. The format is cell-based. Particulars: Table 3, SW-620, 2 days drug exposure, approximately 2 weeks colony growth, read-out: SW-620 Clonogenic IC50. Here is the method:
SW620 cells are seeded at 7×10^5 per well; HCT8 cells are seeded at 5×10^5 per well; HT29 cells are seeded at 4×10^5 cells per well. Serially diluted drugs are prepared at 200 ×the final concentration and 15 μL are added to each of duplicate wells. Cells are incubated with drug for 2 days, rinsed once with 1 mL of trypsin+EDTA, and then trypsinized with the same trypsin solution. […] One milliliter of each of these cell suspensions is added to duplicate wells of 6 well plates previously prepared with 10% serum/growth medium/ 1% agarose plugs. The cells in these plates are incubated for approximately 2 weeks in the incubator and stained with 1 mL per well of 1 mg/mL iodonitrotetrazolium violet stain. The visible colonies are counted with an electronic optical colony counter and the clonogenicity of treated cells calculated in comparison to untreated control cells.

Test [7] has as its target T4, insulin receptor (INSr) (Homo sapiens, UniProt P06213).
T4 construct: An assay using the intracellular kinase domains of insulin receptor (INSr) is performed
Put plainly: Insulin receptor kinase assay. As to conditions: Table 1; as for EGF receptor with 10 mM manganese chloride. The format is biochemical.

For test [8], the target named is Protein kinase C (PKC). Description: PKC assay. The format is biochemical. Particulars: Table 1; rat brain preparation.
Description: Protein kinase C (PKC) is obtained as a rat brain preparation from Promega.
The PKC assay is performed as previously described by Martiny-Baron, et al., J. Biol. Chem. 268: 9194-9197 (1993).
Test [9] deals with T5, Human EGF receptor tyrosine kinase (Homo sapiens, UniProt P00533).
T5 construct: Human EGF receptor tyrosine kinase is isolated from A431 human epidermoid carcinoma cells; endogenous in cells; host or cells: A431 human epidermoid carcinoma cells (detergent lysate, fast Q sepharose fractions)
Put plainly: EGFr tyrosine kinase assay. The format is biochemical. As to conditions: Table 1; 10 μM ATP, 25° C., 10 minutes.

Test [10] addresses MAP Kinase Pathway (GST-MEK / GST-MAPK). Description: Cascade Assay for Inhibitors of the MAP Kinase Pathway (APK Assay). The format is biochemical. Particulars: Table 1; 50 μM ATP, 20 minutes. Here is the method: Cascade Assay for Inhibitors of the MAP Kinase Pathway (APK Assay) Incorporation of ^32 P into myelin basic protein (MBP) is assayed in the presence of a glutathione S-transferase fusion protein containing p44MAP kinase (GST-MAPK) and a glutathione S-transferase fusion protein containing p45MEK (GST-MEK). […] Reactions are stopped after 20 minutes by addition of trichloroacetic acid and filtered through a GF/C filter mat. ^32 P retained on the filter mat is determined using a 1205 betaplate. […] To ascertain whether compounds are inhibiting GST-MEK or GST MAPK, two additional protocols are employed. In the first protocol, compounds are added to tubes containing GST MEK, followed by addition of GST-MAPK, MBP and [γ^32 P]ATP. In the second protocol, compounds are added to tubes containing both GST-MEK and GST-MAPK, followed by MBP and [γ^32 P]ATP. Compounds that show activity in both protocols are scored as […], while compounds showing activity in only the first protocol are scored as MEK inhibitors.

T5 sequence (P00533 25-1210): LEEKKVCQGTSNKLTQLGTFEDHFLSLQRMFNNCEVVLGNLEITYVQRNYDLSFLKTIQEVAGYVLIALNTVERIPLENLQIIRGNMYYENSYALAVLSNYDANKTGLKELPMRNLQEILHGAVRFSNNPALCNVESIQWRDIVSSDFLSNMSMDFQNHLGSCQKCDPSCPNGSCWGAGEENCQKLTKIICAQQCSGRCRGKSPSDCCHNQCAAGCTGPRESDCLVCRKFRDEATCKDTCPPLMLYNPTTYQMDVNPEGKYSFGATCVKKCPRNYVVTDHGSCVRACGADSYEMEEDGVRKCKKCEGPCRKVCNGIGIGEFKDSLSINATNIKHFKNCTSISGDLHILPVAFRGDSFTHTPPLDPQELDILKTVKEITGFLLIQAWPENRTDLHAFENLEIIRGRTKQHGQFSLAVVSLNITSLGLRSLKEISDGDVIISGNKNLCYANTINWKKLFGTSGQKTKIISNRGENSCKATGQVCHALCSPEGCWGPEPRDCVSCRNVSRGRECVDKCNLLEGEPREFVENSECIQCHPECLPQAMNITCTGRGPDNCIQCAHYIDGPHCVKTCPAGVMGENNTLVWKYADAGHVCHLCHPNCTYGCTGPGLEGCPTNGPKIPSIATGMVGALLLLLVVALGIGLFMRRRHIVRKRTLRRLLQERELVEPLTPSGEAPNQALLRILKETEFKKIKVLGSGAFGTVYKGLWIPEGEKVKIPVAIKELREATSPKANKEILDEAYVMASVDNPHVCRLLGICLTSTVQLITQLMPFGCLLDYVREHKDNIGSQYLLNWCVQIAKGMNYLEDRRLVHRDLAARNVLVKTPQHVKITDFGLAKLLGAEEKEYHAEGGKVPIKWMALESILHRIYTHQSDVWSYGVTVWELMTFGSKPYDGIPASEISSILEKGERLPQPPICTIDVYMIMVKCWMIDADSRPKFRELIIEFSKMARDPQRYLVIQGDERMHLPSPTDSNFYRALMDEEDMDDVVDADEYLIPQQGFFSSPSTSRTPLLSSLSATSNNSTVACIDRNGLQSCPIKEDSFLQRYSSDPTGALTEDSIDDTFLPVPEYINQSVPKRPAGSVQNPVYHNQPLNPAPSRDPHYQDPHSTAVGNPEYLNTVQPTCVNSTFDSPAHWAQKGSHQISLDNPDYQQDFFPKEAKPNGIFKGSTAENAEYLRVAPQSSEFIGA
T1 sequence (P12931 whole entry, species assumed): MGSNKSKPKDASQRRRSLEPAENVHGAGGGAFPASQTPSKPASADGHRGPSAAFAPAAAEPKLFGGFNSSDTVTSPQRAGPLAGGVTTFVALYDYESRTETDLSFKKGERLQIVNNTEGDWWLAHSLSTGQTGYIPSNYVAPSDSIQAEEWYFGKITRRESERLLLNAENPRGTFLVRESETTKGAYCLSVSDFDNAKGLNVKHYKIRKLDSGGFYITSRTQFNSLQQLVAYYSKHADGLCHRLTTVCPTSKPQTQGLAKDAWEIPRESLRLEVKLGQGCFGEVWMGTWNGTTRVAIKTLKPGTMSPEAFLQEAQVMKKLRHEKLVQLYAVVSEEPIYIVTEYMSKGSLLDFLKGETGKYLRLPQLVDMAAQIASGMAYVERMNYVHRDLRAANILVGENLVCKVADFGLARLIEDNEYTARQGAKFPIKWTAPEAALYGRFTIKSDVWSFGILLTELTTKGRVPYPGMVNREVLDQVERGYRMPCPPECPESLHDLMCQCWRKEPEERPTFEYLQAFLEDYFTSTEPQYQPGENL
T2 sequence (P05622 599-961 limits assumed): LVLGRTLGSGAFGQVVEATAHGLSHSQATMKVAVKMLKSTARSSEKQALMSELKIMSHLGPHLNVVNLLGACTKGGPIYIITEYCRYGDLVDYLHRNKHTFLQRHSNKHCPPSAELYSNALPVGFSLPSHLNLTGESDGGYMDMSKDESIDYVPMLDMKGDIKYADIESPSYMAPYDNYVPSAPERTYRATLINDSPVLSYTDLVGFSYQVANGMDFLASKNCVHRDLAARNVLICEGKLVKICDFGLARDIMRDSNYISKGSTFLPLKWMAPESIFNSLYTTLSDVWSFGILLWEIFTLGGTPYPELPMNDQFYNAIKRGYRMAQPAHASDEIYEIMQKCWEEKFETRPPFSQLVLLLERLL
T4 sequence (P06213 1023-1298 limits assumed, species assumed): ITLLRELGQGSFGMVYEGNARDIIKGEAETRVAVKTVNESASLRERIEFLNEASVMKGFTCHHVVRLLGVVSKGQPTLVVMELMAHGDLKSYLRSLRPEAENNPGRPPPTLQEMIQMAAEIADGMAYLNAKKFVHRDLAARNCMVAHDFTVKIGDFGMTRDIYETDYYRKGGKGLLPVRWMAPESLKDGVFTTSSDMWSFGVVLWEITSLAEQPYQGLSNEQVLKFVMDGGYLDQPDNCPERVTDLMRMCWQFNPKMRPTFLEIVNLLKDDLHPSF
T3 sequence (P11362 478-767 limits assumed): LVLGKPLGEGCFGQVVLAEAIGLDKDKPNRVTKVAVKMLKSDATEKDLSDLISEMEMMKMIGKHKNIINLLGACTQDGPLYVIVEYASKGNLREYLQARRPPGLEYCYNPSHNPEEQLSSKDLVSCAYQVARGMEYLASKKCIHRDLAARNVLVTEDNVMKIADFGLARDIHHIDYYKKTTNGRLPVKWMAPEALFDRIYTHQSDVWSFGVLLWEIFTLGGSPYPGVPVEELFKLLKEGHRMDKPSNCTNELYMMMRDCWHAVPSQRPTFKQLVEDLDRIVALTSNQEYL

As a reminder, the IC50 is the concentration at which inhibition is half-maximal. For the molecule `c1ccc(-n2cnc3cc(OCCCCN4CCOCC4)ccc32)cc1` [Example 59, 5-[4-(4-Morpholino)butoxy]-1]phenylbenzimidazole Dihydrochloride], the IC50 is 25 µM in [1]; 0.3 µM in [2]; 12 µM in test [3]; 2.2 µM in [4]; greater than 25 µM in [5]; greater than 25 µM in test [6].

For `CN(C)CCCOc1ccc2c(c1)ncn2-c1ccccc1` [Example 37, 5-[3--(N,N-Dimethylamino)propoxyl]-1-phenylbenzimidazole Dihydrochloride], the IC50 in test [1] was 14 µM; in [2], 0.2 µM; in test [3], 4.1 µM; in test [7], greater than 50 µM; in test [8] it was greater than 50 µM; in test [9], greater than 40 µM. In test [10], this molecule registered an IC50 of 27 µM.

In the case of `c1ccc(-n2cnc3cc(OCCCN4CCOCC4)ccc32)cc1` [Example 39, 5-[3-(4-Morpholino)propoxy]-1-phenylbenzimidazole Dihydrochloride], the IC50 in [1] was greater than 50 µM; in test [2] it was 0.2 µM; in test [3] it was 9.8 µM; in test [7] it was greater than 50 µM; in test [8], greater than 50 µM; in [9], greater than 40 µM. This molecule came in with an IC50 in test [10] of 18 µM.

Turning to `COc1ccc2c(c1)ncn2-c1ccc(N)cc1` [Example 45, 1-(4-Aminophenyl)-5-methoxybenzimidazole Dihydrochloride], the IC50 in test [1] was greater than 50 µM; in test [2] it was 0.3 µM; in [3], 18 µM; in test [7], greater than 50 µM; in test [8], greater than 50 µM; in test [4] it was 3.5 µM. Also, the values for the IC50 in test [9] and in test [10] were less than 40 µM and 37 µM, respectively.

As to `Nc1ccc(-n2cnc3ccccc32)cc1` [Example 8, 1-(4-Aminophenyl)benzimidazole Dihydrochloride], the IC50 in test [2] is 5.6 µM; in test [4], greater than 10 µM.

For `c1ccc(-n2cnc3cc(OCCN4CCOCC4)ccc32)cc1` [Example 38, 5-[2-(4-Morpholino)ethoxy]-1-phenylbenzimidazole Dihydrochloride], the IC50 in test [1] was greater than 50 µM; in [2], 0.7 µM; in test [3], 28 µM; in test [7] it was greater than 50 µM; in [8], greater than 50 µM; in test [4], 0.7 µM. The IC50 in test [9] is greater than 40 µM; in test [10] it was 45 µM.

Turning to `COc1ccc2ncn(-c3ccccc3)c2c1` [Example 40, 6-Methoxy-1-phenylbenzimidazole], the IC50 was 6.4 µM in [2] and greater than 10 µM in test [4].

For `CC(=O)Oc1ccc2c(c1)ncn2-c1ccccc1` [Example 27, 5-Acetoxy-1-phenylbenzimidazole], the IC50 is greater than 50 µM in test [1]; 1.8 µM in test [2]; 26 µM in test [3]; greater than 50 µM in test [7]; greater than 50 µM in test [9].

Turning to `O=Cc1ccc2c(c1)ncn2-c1ccccc1` [Example 21, 1-Phenylbenzimidazole-5-carboxaldehyde], the IC50 is 50 µM in [1]; 8.4 µM in [2]; 50 µM in test [3]; greater than 50 µM in test [7]; less than 50 µM in test [9].

Turning to `O=C(O)c1ccc2c(c1)ncn2-c1ccccc1` [Example 16, 1-Phenylbenzimidazole-5-carboxylic Acid Hydrochloride], the IC50 in [1] is 50 µM; in [2] it was 9.3 µM; in [3], 28 µM; in [7] it was greater than 50 µM; in test [9], greater than 50 µM.
